Results reported in ChEMBL document CHEMBL3627624, “New natural product carbonic anhydrase inhibitors incorporating phenol moieties” (Bioorg Med Chem, 2015).

Key:
[1] = biological target: T1, Carbonic anhydrase 1 (Homo sapiens, UniProt P00915); experiment: Inhibition of human recombinant carbonic anhydrase 1 preincubated for 15 mins at room temperature/6 hrs at 4 deg C by stopped-flow CO2 hydration assay
[2] = biological target: T2, Carbonic anhydrase 2 (Homo sapiens, UniProt P00918); experiment: Inhibition of human recombinant carbonic anhydrase 2 preincubated for 15 mins at room temperature/6 hrs at 4 deg C by stopped-flow CO2 hydration assay
[3] = biological target: T3, Carbonic anhydrase 4 (Homo sapiens, UniProt P22748); experiment: Inhibition of human recombinant carbonic anhydrase 4 preincubated for 15 mins at room temperature/6 hrs at 4 deg C by stopped-flow CO2 hydration assay
T3 sequence (P22748 whole entry): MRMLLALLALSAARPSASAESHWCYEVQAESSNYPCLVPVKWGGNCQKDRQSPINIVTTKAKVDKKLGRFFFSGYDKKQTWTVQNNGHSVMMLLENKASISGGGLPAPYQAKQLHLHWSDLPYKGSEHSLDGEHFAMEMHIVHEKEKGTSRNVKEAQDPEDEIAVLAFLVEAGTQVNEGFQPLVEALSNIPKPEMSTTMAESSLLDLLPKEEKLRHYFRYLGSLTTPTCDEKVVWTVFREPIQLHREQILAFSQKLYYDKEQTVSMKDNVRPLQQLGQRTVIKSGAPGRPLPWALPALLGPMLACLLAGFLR

[4] = biological target: Carbonic anhydrase 7 (Homo sapiens, UniProt P43166); experiment: Inhibition of human recombinant carbonic anhydrase 7 preincubated for 15 mins at room temperature/6 hrs at 4 deg C by stopped-flow CO2 hydration assay
Chain of Carbonic anhydrase 7 (P43166 whole entry): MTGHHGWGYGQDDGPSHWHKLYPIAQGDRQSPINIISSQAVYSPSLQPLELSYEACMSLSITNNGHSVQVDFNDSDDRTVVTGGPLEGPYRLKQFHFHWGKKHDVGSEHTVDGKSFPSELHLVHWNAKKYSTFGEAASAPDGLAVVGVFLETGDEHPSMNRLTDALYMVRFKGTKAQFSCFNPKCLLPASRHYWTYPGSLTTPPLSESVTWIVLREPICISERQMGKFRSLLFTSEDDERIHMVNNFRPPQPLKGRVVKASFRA

[5] = biological target: T4, Carbonic anhydrase 12 (Homo sapiens, UniProt O43570); experiment: Inhibition of human recombinant carbonic anhydrase 12 preincubated for 15 mins at room temperature/6 hrs at 4 deg C by stopped-flow CO2 hydration assay
T4 sequence (O43570 whole entry): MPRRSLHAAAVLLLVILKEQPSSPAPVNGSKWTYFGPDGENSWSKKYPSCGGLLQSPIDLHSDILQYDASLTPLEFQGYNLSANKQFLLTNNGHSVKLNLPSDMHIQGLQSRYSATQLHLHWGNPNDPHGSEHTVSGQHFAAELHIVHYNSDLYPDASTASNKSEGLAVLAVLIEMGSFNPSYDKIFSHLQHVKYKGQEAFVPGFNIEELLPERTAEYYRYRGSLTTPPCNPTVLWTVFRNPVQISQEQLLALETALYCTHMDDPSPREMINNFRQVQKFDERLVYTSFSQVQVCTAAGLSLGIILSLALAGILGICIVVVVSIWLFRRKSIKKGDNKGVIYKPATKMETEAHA

[6] = biological target: T1, Carbonic anhydrase 1; experiment: Inhibition of human recombinant carbonic anhydrase 1
[7] = biological target: T2, Carbonic anhydrase 2; experiment: Inhibition of human recombinant carbonic anhydrase 2
[8] = biological target: T4, Carbonic anhydrase 12; experiment: Inhibition of human recombinant carbonic anhydrase 12
[9] = biological target: T3, Carbonic anhydrase 4; experiment: Inhibition of human recombinant carbonic anhydrase 4

T1 sequence (P00915 whole entry): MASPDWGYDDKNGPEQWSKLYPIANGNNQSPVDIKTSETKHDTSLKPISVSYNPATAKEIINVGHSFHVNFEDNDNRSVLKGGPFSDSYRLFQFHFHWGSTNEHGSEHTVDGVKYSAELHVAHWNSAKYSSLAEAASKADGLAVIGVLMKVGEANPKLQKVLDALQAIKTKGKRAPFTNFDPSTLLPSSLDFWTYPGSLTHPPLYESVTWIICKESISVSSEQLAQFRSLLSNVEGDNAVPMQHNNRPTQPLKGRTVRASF

SMILES	Ki [1]	Ki [2]	Ki [3]	Ki [4]	Ki [5]	Ki [6]	Ki [7]	Ki [8]	Ki [9]
O=C(/C=C/c1ccc(O)cc1)OC[C@H]1O[C@@H](Oc2c(-c3ccc(O)cc3)oc3cc(O)cc(O)c3c2=O)[C@H](OC(=O)/C=C/c2ccc(O)cc2)[C@@H](O)[C@@H]1O	> 10 µM	8.79 µM	0.344 µM	0.0047 µM	0.409 µM	–	–	–	–
CC(=O)O[C@@H]1[C@@H](OC(=O)/C=C/c2ccc(O)cc2)[C@H](Oc2c(-c3ccc(O)cc3)oc3cc(O)cc(O)c3c2=O)O[C@H](COC(=O)/C=C/c2ccc(O)cc2)[C@H]1OC(C)=O	> 10 µM	6.86 µM	0.0622 µM	0.0266 µM	0.4 µM	–	–	–	–
O=C1c2c(O)cc(O)cc2O[C@H](c2ccc(O)c(O)c2)[C@H]1O [(+)-TAXIFOLIN]	> 10 µM	–	–	–	–	–	–	–	–
O=c1c(O[C@@H]2O[C@H](CO)[C@@H](O)[C@H](O)[C@H]2O)c(-c2ccc(O)cc2)oc2cc(O)cc(O)c12 [ASTRAGALIN]	> 10 µM	0.168 µM	5.59 µM	0.424 µM	0.0049 µM	–	–	–	–
COc1ccc(-c2coc3cc(O)cc(O)c3c2=O)cc1 [BIOCHANIN]	> 10 µM	> 10 µM	7.08 µM	0.372 µM	0.0525 µM	–	–	–	–
O=c1cc(-c2ccccc2)oc2cc(O)cc(O)c12 [CHRYSIN]	> 10 µM	> 10 µM	0.538 µM	0.171 µM	0.0347 µM	–	–	–	–
O=c1c(-c2ccc(O)cc2)coc2cc(O)ccc12 [DAIDZEIN]	> 10 µM	> 10 µM	0.719 µM	0.0042 µM	0.0564 µM	–	–	–	–
O=C1C[C@@H](c2ccc(O)c(O)c2)Oc2cc(O)cc(O)c21 [ERIODICTYOL]	> 10 µM	> 10 µM	0.0728 µM	0.0043 µM	0.0311 µM	–	–	–	–
O=c1c(O)c(-c2ccccc2)oc2cc(O)cc(O)c12 [GALANGIN]	> 10 µM	> 10 µM	0.568 µM	0.0245 µM	0.0418 µM	–	–	–	–
COc1ccc([C@@H]2CC(=O)c3c(O)cc(O)cc3O2)cc1O [HESPERETIN]	> 10 µM	> 10 µM	0.102 µM	0.0033 µM	0.454 µM	–	–	–	–
O=c1c(O[C@@H]2O[C@H](CO)[C@@H](O)[C@H](O)[C@H]2O)c(-c2ccc(O)c(O)c2)oc2cc(O)cc(O)c12 [ISOQUERCETIN]	> 10 µM	6.21 µM	0.0757 µM	0.0038 µM	0.0521 µM	> 10 µM	0.41 µM	0.17 µM	–
COc1cc(-c2oc3cc(O)cc(O)c3c(=O)c2O)ccc1O [ISORHAMNETIN]	> 10 µM	> 10 µM	0.213 µM	0.0044 µM	0.0549 µM	> 10 µM	0.44 µM	0.22 µM	–
O=c1c(O)c(-c2ccc(O)cc2)oc2cc(O)cc(O)c12 [KAEMPFEROL]	> 10 µM	9.53 µM	> 10 µM	0.025 µM	0.146 µM	–	–	–	–
O=C(/C=C/c1ccc(O)c2c1[C@H](C(=O)O)[C@@H](c1ccc(O)c(O)c1)O2)O[C@H](Cc1ccc(O)c(O)c1)C(=O)O [LITHOSPERMIC ACID]	> 10 µM	> 10 µM	0.101 µM	0.268 µM	–	–	–	–	–
O=c1cc(-c2ccc(O)c(O)c2)oc2cc(O)cc(O)c12 [LUTEOLIN]	> 10 µM	3.69 µM	–	0.0047 µM	0.0603 µM	–	–	–	0.293 µM
O=C1C[C@@H](c2ccc(O)cc2)Oc2cc(O)cc(O)c21 [NARINGENIN]	> 10 µM	> 10 µM	0.0795 µM	0.0043 µM	0.0443 µM	–	–	–	–
O=c1c(-c2ccc(O)cc2)coc2c([C@@H]3O[C@H](CO)[C@@H](O)[C@H](O)[C@H]3O)c(O)ccc12 [PUERARIN]	> 10 µM	> 10 µM	> 10 µM	0.453 µM	–	–	–	–	–
C[C@@H]1O[C@@H](Oc2c(-c3ccc(O)c(O)c3)oc3cc(O)cc(O)c3c2=O)[C@H](O)[C@H](O)[C@H]1O [QUERCETIN-3-O-RHAMNOSIDE]	> 10 µM	6.37 µM	0.0673 µM	0.0039 µM	0.0435 µM	–	–	–	–
O=C(/C=C/c1ccc(O)c(O)c1/C=C/c1ccc(O)c(O)c1)O[C@H](Cc1ccc(O)c(O)c1)C(=O)O [SALVIANOLIC ACID A]	> 10 µM	9.59 µM	0.0666 µM	0.0714 µM	0.0398 µM	–	–	–	–
O=C(/C=C/c1ccc(O)cc1)OC[C@H]1O[C@@H](Oc2c(-c3ccc(O)cc3)oc3cc(O)cc(O)c3c2=O)[C@H](O)[C@@H](O)[C@@H]1O [TILIROSIDE]	> 10 µM	> 10 µM	5.47 µM	0.0046 µM	0.134 µM	–	–	–	–
